Here are results for one compound from US20050215646A1, “Methods for treating multiple sclerosis and pharmaceutical compositions therefor” (Renovis, Inc., priority 2004, published 2005).

Structures are written as SMILES.

The experiment concerns the target T1, CXCR2 (Homo sapiens, UniProt P25025).
T1 construct: cDNA fragments encompassing chemokine receptor coding regions; expressed in transfected cells; host or cells: CHO-K1 (ATCC CCL-61), transient transfection
T1 sequence (P25025 1-360): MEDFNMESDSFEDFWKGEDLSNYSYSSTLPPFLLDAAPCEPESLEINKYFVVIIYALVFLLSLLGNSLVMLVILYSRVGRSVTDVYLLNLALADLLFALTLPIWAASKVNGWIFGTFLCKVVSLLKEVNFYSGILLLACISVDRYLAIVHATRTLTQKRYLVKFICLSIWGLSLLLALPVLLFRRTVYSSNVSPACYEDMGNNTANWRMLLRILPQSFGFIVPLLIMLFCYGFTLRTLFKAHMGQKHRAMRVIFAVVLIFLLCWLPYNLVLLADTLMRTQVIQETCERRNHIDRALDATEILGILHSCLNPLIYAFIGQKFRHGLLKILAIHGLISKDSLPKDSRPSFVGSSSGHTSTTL
Description: Migration of CHO-K1 cells expressing CXCR2. It counts as cell-based. The following applies: CHO-K1 cells expressing CXCR2, 2 hours; FIG. 3. The protocol: CHO-K1 cells were obtained from American Type Culture Collection (CCL-61) and cultured in Ham's F12 media supplemented with 10% heat inactivated FBS and 100 μg/ml penicillin/streptomycin. cDNA fragments encompassing chemokine receptor coding regions were obtained from cDNAs synthesized from HL-60 cells and/or human peripheral blood mononuclear cells by the polymerase chain reaction. Expression constructs of chemokine receptors were generated by cloning PCR fragments into expression vector pEF6/V5-TOPO (K9610-20, Invitrogen). Transient transfections were carried out with Fugene 6 transfection reagent (1814443, Roche Applied Science) according to the manufacturer's instructions.
The CHO-chemokine receptor cells were used in migration assays 36 hours following transfection. In vitro migration assays were performed using a Neuroprobe Blindwell migration apparatus (AA12, Neuro Probe, Inc./16008 Industrial Drive, Gaithersburg, Md. 20877) according to the manufacturer's instructions with slight modifications. […]
Following the migration assays, migrated cells that had adhered to the underside of the filter were quantitated according to the manufacturer's instructions. […] Stained filtered were mounted onto microscope slides and migrated cells in each well were manually counted under 40× magnification.

As for `CC(C)(C)c1cc(/C=[N+](\[O-])C(C)(C)C)cc(C(C)(C)C)c1O` [Compound 1, α-(4-hydroxy-3,5-di-tert-butylphenyl)-N-tert-butylnitrone], the “induction of cell migration” value is reported as “induced migration”.
